Measured values reported in patent US6642258B1, “Use of central cannabinoid receptor antagonist for preparing medicines” (Sanofi-Synthelabo, priority 1999, dated 2003).

Columns and labels:
[1] = test system: experimental allergic encephalitis (EAE) in Lewis rats; experiment: Experimental allergic encephalitis (EAE) induced in Lewis rats by intraplantar MBP (fragment 68-84) in FCA; assay type: in vivo; conditions: administered orally or intraperitoneally from day zero of induction
[2] = test system: experimental allergic encephalitis (EAE) in SjL/j mice; experiment: Experimental allergic encephalitis (EAE) induced in SjL/j mice by subcutaneous PLP (fragment 139-151) in FCA plus Bordetella pertussis; assay type: in vivo; conditions: administered orally or intraperitoneally from day zero of induction

With `Cc1c(C(=O)NN2CCCCC2)nn(-c2ccc(Cl)cc2Cl)c1-c1ccc(Cl)cc1` [compound A, N-Piperidino-5-(4-chlorophenyl)-1-(2,4-dichlorophenyl)-4-methylpyrazole-3-carboxamide] the “severity of the condition (paralysis of the hind quarters)” value [1] was “statistically smaller”, the “weight loss of the animals” value ([1]; compared with vehicle alone) was “significantly smaller” and the “severity of the condition (paralysis of the hind quarters)” value [2] was “statistically smaller”. The “weight loss of the animals” value ([2]; compared with vehicle alone) was “significantly smaller”.
